One data set deals with TRPV1. The data set is described as follows: TRPV1 expression in IEC-6/TRPV1+ cells (qRT-PCR, western blot, immunofluorescence). It counts as cell-based, rat. The following applies: for fluorescence intensity of TRPV1: pre-treatment 24 h, NOVO 10 μM, SB-705498 0.1 μM, Figure 2G. As to the method: The IEC-6/TRPV1^+ cells were cultured on coverslips in 24-well plates overnight. Briefly, cells were stimulated with NOVO (10 μM), SB-705498 (0.1 μM) for 24 h. At the end of incubation, cells were fixed with 4% paraformaldehyde in 0.1 M PBS for 20 min. The cells were then treated by 0.25% (v/v) TritonX-100 for 5 min, and washed again. Followed by blocking in 5% (v/v) horse serum for 60 min, cells were then incubated with primary antibodies for the anti-TRPV1 receptor antibody (1:1000, NB100-1617, Novus) overnight in a 4°C refrigerator. Alexa Flour® 488-conjugated goat anti-rabbit IgG (Zhongshan Goldenbridge Biotechnology) at 1:100 dilution was used as the secondary antibody that incubated cells for 60 min. Thereafter, the coverslips were mounted face down onto slides with mounting medium containing DAPI and stored at 4°C before microscopy. Fluorescence images were captured using a fluorescence microscope (Olympus, Japan).
qRT-PCR was performed to evaluate TRPV1 mRNA expression after NOVO treatment. The total RNA of the cells or tissues was isolated with an RNA isolation plus kit (Takara Shuzo, Kyoto, Japan), according to the manufacturer’s protocol. The quality of RNA was confirmed by agarose gel electrophoresis and an optical density measurement of A260/A280. The cDNAs were prepared using SYBR® Premix Ex Taq^TMII (Takara Shuzo, Kyoto, Japan) and the following primers: 5′-[…]-3′ and 5′-[…]-3′ for TRPV1, and 5′-[…]-3′, 5′-[…]-3′ for GAPDH were carried out by using the LightCycler480 System. The relative expression was calculated by the 2^-ΔΔC(t) method ([Livak and Schmittgen, 2001]).
After treatment, the cells or tissues were collected and washed with PBS. Membrane protein extracts were obtained with Membrane Protein Extraction Kit (Thermo Fisher Scientific Inc, United States), according to the manufacturer’s protocol. Protein concentrations were quantified by using the BCA Protein Assay kit (Beyotime, Shanghai, China). Equal amounts of protein were resolved by SDS-PAGE on a 10% polyacrylamide gel and transferred onto a polyvinylidene fluoride membrane. […]

The test system of data set [1] is IEC-6/TRPV1+ cells. Nature of the data set: CAP accumulation assay. The following applies: for accumulation of CAP after inhibitor added at 60 min: CAP alone 60 min, then SB-705498 or NOVO (5 and 10 μM), at 75 min, Figure 3E. It counts as cell-based, rat. The procedure: The transfected cells were grown to 80% confluence in 12-well plates. […] SB-705498, RR or NOVO was then added to the medium for another 15, 30, and 60 min. […] After incubation, the medium was removed, and cell layers were washed three times with ice-cold PBS and then extracted with Membrane Protein Extraction Kit (Thermo Fisher Scientific Inc, Rockford, IL, United States), according to the manufacturer’s protocol. The cytosolic protein extracts were stored at -80°C until LC-MS/MS analysis.
The plasma samples and protein sample with 100 μL were extracted with 400 μL of methanol involving IS (verapamil 50 ng⋅mL^-1) by vortex-mix for 1 min, ultrasonic extraction for 1 h, and then centrifugation for 30 min at 15000 g. The supernatant was transferred into a borosilicate glass and 2 μL was subjected to LC-MS/MS analysis.
The LC-MS/MS system consisted of Agilent 6460 Triple Quadrupole LC/MS systems via an ESI interface. The samples were separated on an Agilent ZORBAX SB-C18 column (3.5 μm, 2.1 mm × 150 mm) and the column temperature was maintained at 30°C. The mobile phase consisted of acetonitrile and water contains 0.1% formic acid (70:30, v/v). The flow rate was 0.2 mL⋅min^-1. The ion source was an electrospray ionization interface in the positive mode. […] Other parameters were as follows: spray voltage, 4.0 kV; capillary temperature, 350°C; gas flow, 10 L⋅min^-1.

Data set [2] has as its system IEC-6/TRPV1- cells. Nature of the data set: CAP accumulation assay. Conditions: 2.5-10 μM NOVO, 10 μM RR, 0.1 μM SB-705498, Figure 3D. It counts as cell-based, rat. The procedure: The transfected cells were grown to 80% confluence in 12-well plates. The experiment was divided into three parts: […] SB-705498, RR or NOVO was then added to the medium for another 15, 30, and 60 min. […] After incubation, the medium was removed, and cell layers were washed three times with ice-cold PBS and then extracted with Membrane Protein Extraction Kit (Thermo Fisher Scientific Inc, Rockford, IL, United States), according to the manufacturer’s protocol. The cytosolic protein extracts were stored at -80°C until LC-MS/MS analysis. The plasma samples and protein sample with 100 μL were extracted with 400 μL of methanol involving IS (verapamil 50 ng⋅mL^-1) by vortex-mix for 1 min, ultrasonic extraction for 1 h, and then centrifugation for 30 min at 15000 g. The supernatant was transferred into a borosilicate glass and 2 μL was subjected to LC-MS/MS analysis. The LC-MS/MS system consisted of Agilent 6460 Triple Quadrupole LC/MS systems via an ESI interface. The samples were separated on an Agilent ZORBAX SB-C18 column (3.5 μm, 2.1 mm × 150 mm) and the column temperature was maintained at 30°C. The mobile phase consisted of acetonitrile and water contains 0.1% formic acid (70:30, v/v). The flow rate was 0.2 mL⋅min^-1. The ion source was an electrospray ionization interface in the positive mode. […] Other parameters were as follows: spray voltage, 4.0 kV; capillary temperature, 350°C; gas flow, 10 L⋅min^-1.

For data set [3], the system named is IEC-6/TRPV1+ cells. The data set is described as follows: LDH release assay (cell membrane integrity). The following applies: for LDH release: IEC-6/TRPV1+; for LDH release compared with the control: NOVO 2.5, 5, 10 μM, CAP 25 μM, RR 10 μM, SB-705498 0.1 μM, 12 and 24 h. On the technique in general: LDH in the medium is a marker of cell lysis.
Method: (§1) The transfected cells were plated in 12-well plates. […] The cells were centrifuged at 1000 g for 5 min. Next, 50 μL of supernatants were aspirated and the rest of supernatants were discarded. The cells were washed twice with deionized water and then lysed by ultrasonic wave cracker. And then cell lysate and supernatants were analyzed by using LDH Release Assay Kit, according to the manufacturer’s instructions.
The subject of data set [4] is IEC-6/TRPV1- cells. Nature of the data set: LDH release assay (cell membrane integrity).
Method: as §1

For the molecule `O=C(Nc1ccccc1Br)N[C@@H]1CCN(c2ccc(C(F)(F)F)cn2)C1` [SB-705498], the “fluorescence intensity of TRPV1” value in the data set on TRPV1 is “reduced”. The “accumulation of CAP after inhibitor added at 60 min” value with IEC-6/TRPV1+ cells [1] is “decreased immediately”. Moreover, in the data set with IEC-6/TRPV1- cells [2], the “accumulation of CAP, co-incubation” value was “did not change”. Moreover, the LDH release is 0.469 ± 0.124 gprot⋅mL ^-1 in the data set on IEC-6/TRPV1+ cells [3] (0.1 μM, 12 h); 0.423 ± 0.149 gprot⋅mL ^-1 in the data set with IEC-6/TRPV1+ cells [3] (0.1 μM, 24 h); 0.509 ± 0.155 gprot⋅mL ^-1 in the data set on IEC-6/TRPV1- cells [4] (0.1 μM, 12 h); 0.537 ± 0.019 gprot⋅mL ^-1 in the data set with IEC-6/TRPV1- cells [4] (0.1 μM, 24 h). Moreover, in the data set on IEC-6/TRPV1+ cells [3], the “LDH release compared with the control” value is listed as “not any significant difference”.

For `CO[C@@H]1[C@@H](OC(N)=O)[C@@H](O)[C@H](Oc2ccc3c(O)c(NC(=O)c4ccc(O)c(CC=C(C)C)c4)c(=O)oc3c2C)OC1(C)C` [NOVO, novobiocin], the “expression of TRPV1 mRNA and protein” value with TRPV1 (2.5-10 μM NOVO, over 24 h, Figures 2A,B,F) was “dramatically attenuate”. Besides, the “fluorescence intensity of TRPV1” value in the data set with TRPV1 is given as “reduced”. Also, in the data set on IEC-6/TRPV1+ cells [1], the “accumulation of CAP after inhibitor added at 60 min” value is “decreased immediately”. Further, the “accumulation of CAP, co-incubation” value in the data set on IEC-6/TRPV1+ cells [1] (CAP in combination with 2.5-10 μM NOVO, vs control, Figure 3C) is “strong inhibition”; in the data set with IEC-6/TRPV1- cells [2], “did not change”. Moreover, in the data set on IEC-6/TRPV1+ cells [1] (NOVO 2.5-10 μM 24 h prior to 25 μM CAP for 60 min, Figure 3B), the “accumulation of CAP in cells after 24 h pre-treatment” value is “positive correlation with a decrease in the accumulation of CAP”. Also, the LDH release in the data set on IEC-6/TRPV1+ cells [3] (1 μM, 12 h) amounted to 0.415 ± 0.169 gprot⋅mL ^-1; in the data set with IEC-6/TRPV1+ cells [3] (1 μM, 24 h), 0.353 ± 0.026 gprot⋅mL ^-1; in the data set with IEC-6/TRPV1+ cells [3] (5 μM, 12 h) it was 0.356 ± 0.090 gprot⋅mL ^-1; in the data set on IEC-6/TRPV1+ cells [3] (5 μM, 24 h), 0.300 ± 0.052 gprot⋅mL ^-1; in the data set with IEC-6/TRPV1+ cells [3] (10 μM, 12 h) it was 0.337 ± 0.005 gprot⋅mL ^-1; in the data set with IEC-6/TRPV1+ cells [3] (10 μM, 24 h), 0.299 ± 0.072 gprot⋅mL ^-1. The LDH release was determined as 0.638 ± 0.131 gprot⋅mL ^-1 with IEC-6/TRPV1- cells [4] (1 μM, 12 h); 0.433 ± 0.127 gprot⋅mL ^-1 in the data set with IEC-6/TRPV1- cells [4] (1 μM, 24 h); 0.651 ± 0.120 gprot⋅mL ^-1 in the data set with IEC-6/TRPV1- cells [4] (5 μM, 12 h); 0.554 ± 0.103 gprot⋅mL ^-1 in the data set with IEC-6/TRPV1- cells [4] (5 μM, 24 h); 0.535 ± 0.119 gprot⋅mL ^-1 in the data set with IEC-6/TRPV1- cells [4] (10 μM, 12 h); 0.502 ± 0.106 gprot⋅mL ^-1 with IEC-6/TRPV1- cells [4] (10 μM, 24 h). For the same molecule, the “LDH release compared with the control” value in the data set on IEC-6/TRPV1+ cells [3] was “not any significant difference”.

For the origin of these results see article PMC6196238, “Novobiocin, a Newly Found TRPV1 Inhibitor, Attenuates the Expression of TRPV1 in Rat Intestine and Intestinal Epithelial Cell Line IEC-6” (Frontiers in Pharmacology, 2018).
